Counter-ions that a name gives are not always drawn.
Tested on: IL-2 secretion by Jurkat T cells
Assay: Inhibition of IL-2 secretion (PHA-stimulated Jurkat T cells, ELISA)
Type: cell-based
Settings: Homo sapiens, 20 to 24 hours
Description: The CRAC channel modulatory activity of the compounds were thus evaluated by measuring the secretion of IL-2 by antigen stimulated T-cells in vitro. Alternatively, such activity can also be evaluated by assay methods known to one skilled in the art.
Inhibition of IL-2 secretion: Jurkat T cells were seeded at a density of 0.5 to 1 million cells per well in RPMI medium. Test compounds from this invention were added to the cells at different concentrations. This was followed by the addition of PHA, a T cell mitogen after 10 minutes. The cells were then incubated for 20 to 24 hours in a CO2 incubator at 37° C. After incubation with the compounds, cells were centrifuged; the supernatant was collected and processed for ELISA to quantitate the amount of IL-2 secreted. A commercial ELISA kit (R&D Systems, Inc. Minneapolis, Minn., USA) was used to estimate the IL-2 concentrations. Amount of IL-2 secreted by cells stimulated with PHA was considered as a 100% maximal signal and the decrease in amount of IL-2 secreted by cells treated with the test compounds was expressed as percent inhibition of the maximal signal. The dose response data was analyzed using 4-parametric sigmoidal dose response (variable slope) curve-fit.

IC50 [nM] | SMILES
< 25 | COCC1(C)C=C(c2cnc(NC(=O)c3c(F)cccc3F)cn2)c2cccc(C)c2O1 (stereo not drawn) [Example 103, 2,6-Difluoro-N-(5-(2-(methoxymethyl)-2,8-dimethyl-2H-chromen-4-yl)pyrazin-2-yl)benzamide]
50 to 100 | Cc1cc2c(cc1-c1ccc(NC(=O)c3c(F)cccc3F)nc1)OC(C)(CO)CC2=O (stereo not drawn) [Example 54, 2,6-Difluoro-N-(5-(2-(hydroxymethyl)-2,6-dimethyl-4-oxochroman-7-yl)pyridin-2-yl)benzamide]
100 to 500 | Cc1c(-c2ccc(NC(=O)c3c(F)cccc3F)cc2)ccc2c1OC1(CCC1)CC2=O [Example 19, 2,6-Difluoro-N-(4-(8-methyl-4-oxospiro[chroman-2,1′-cyclobutan]-7-yl)phenyl)benzamide]
< 25 | CCc1cc2c(cc1-c1ccc(C(=O)Nc3c(F)cncc3F)cc1)OC(C)(C)CC2 [Example 49, N-(3,5-Difluoropyridin-4-yl)-4-(6-ethyl-2,2-dimethylchroman-7-yl)benzamide]
25 to 50 | COCC1(C)C=C(c2ccc(NC(=O)c3c(F)cccc3F)cc2)c2ccccc2O1 (stereo not drawn) [Example 90]
< 25 | Cc1c(-c2ccc(NC(=O)c3c(F)cccc3F)cc2)ccc2c1OC(C)(C)CC2 [Example 59, 2,6-Difluoro-N-(4-(2,2,8-trimethylchroman-7-yl)phenyl)benzamide]
25 to 50 | Cc1cc2c(cc1-c1ccc(NC(=O)c3c(F)cccc3F)cc1)OC(C)(C)CC2=O [Example 1, 2,6-Difluoro-N-(4-(2,2,6-trimethyl-4-oxochroman-7-yl)phenyl)benzamide]
25 to 50 | Cc1cc2c(cc1-c1ccc(NC(=O)c3c(F)cccc3F)cc1)OC1(CC2=O)CN(C)C1 [Example 121, N-(4-(1,6′-Dimethyl-4′-oxospiro[azetidine-3,2′-chroman]-7′-yl)phenyl)-2,6-difluorobenzamide]
< 25 | Cc1cccc2c1OC1(C=C2c2ccc(NC(=O)c3c(F)cccc3F)nc2)CCC1 [Example 101, 2,6-Difluoro-N-(5-(8-methylspiro[chromene-2,1′-cyclobutan]-4-yl)pyridin-2-yl)benzamide]
50 to 100 | Cc1ccc2c(c1)OC1(C=C2c2ccc(NC(=O)c3c(F)cccc3F)cc2)CCC1 [Example 77, 2,6-Difluoro-N-(4-(7-methylspiro[chromene-2,1′-cyclobutan]-4-yl)phenyl)benzamide]
50 to 100 | Cc1cc2c(cc1-c1ccc(NC(=O)c3c(F)cccc3F)cc1)CCC1(CCC1)O2 [Example 18, 2,6-Difluoro-N-(4-(7-methylspiro[chroman-2,1′-cyclobutan]-6-yl)phenyl)benzamide]
50 to 100 | Cc1cc2c(cc1-c1ccc(NC(=O)c3c(F)cccc3F)cc1)OC(C)(C)CC2N(C)C (stereo not drawn) [Example 62, N-(4-(4-(Dimethylamino)-2,2,6-trimethylchroman-7-yl)phenyl)-2,6-difluorobenzamide]
< 25 | O=C(Nc1ccc(C2=CC3(CCC3)Oc3ccccc32)cc1)c1c(F)cccc1F [Example 68, 2,6-Difluoro-N-(4-(spiro[chromene-2,1′-cyclobutan]-4-yl)phenyl)benzamide]
100 to 500 | COCC1(C)C=C(c2ccc(NC(=O)c3c(F)cccc3F)cn2)c2cccc(C)c2O1 (stereo not drawn) [Example 105, 2,6-Difluoro-N-(6-(2-(methoxymethyl)-2,8-dimethyl-2H-chromen-4-yl)pyridin-3-yl)benzamide]
< 25 | Cc1cc2c(cc1-c1cnc(NC(=O)c3c(F)cccc3F)cn1)OC(C)(C)CC2=O [Example 4, 2,6-Difluoro-N-(5-(2,2,6-trimethyl-4-oxochroman-7-yl)pyrazin-2-yl)benzamide]
50 to 100 | CCc1cc2c(cc1-c1cnc(NC(=O)c3c(F)cccc3F)cn1)OC1(CCC1)CC2=O [Example 41, N-(5-(6-Ethyl-4-oxospiro[chroman-2,1′-cyclobutan]-7-yl)pyrazin-2-yl)-2,6-difluorobenzamide]
< 25 | Cc1cccc2c1OC(C)(C)C=C2c1cnc(NC(=O)c2c(F)cccc2F)cn1 [Example 89, 2,6-Difluoro-N-(5-(2,2,8-trimethyl-2H-chromen-4-yl)pyrazin-2-yl)benzamide]
< 25 | Cc1ccc2c(c1)C(c1ccc(NC(=O)c3c(F)cccc3F)cc1)=CC1(CCC1)O2 [Example 75, 2,6-Difluoro-N-(4-(6-methylspiro[chromene-2,l′-cyclobutan]-4-yl)phenyl)benzamide]
25 to 50 | Cc1cc2c(cc1-c1ccc(NC(=O)c3c(F)cccc3F)nc1)OC(C)(C)CC2=O [Example 6]
100 to 500 | Cc1ccc2c(c1)C(c1ccc(NC(=O)c3c(F)cccc3F)nc1)=CC1(CCC1)O2 [Example 106, 2,6-Difluoro-N-(5-(6-methylspiro[chromene-2,1′-cyclobutan]-4-yl)pyridin-2-yl)benzamide]

IC50 [nM] | SMILES
< 25 | CCc1cc2c(cc1-c1ccc(NC(=O)c3c(F)cccc3F)cc1)OC(C)(C)CC2=O [Example 2, N-(4-(6-Ethyl-2,2-dimethyl-4-oxochroman-7-yl)phenyl)-2,6-difluorobenzamide]
25 to 50 | Cc1cc2c(cc1-c1ccc(NC(=O)c3c(F)cccc3F)nc1)OC1(COC1)CC2=O [Example 124, 2,6-Difluoro-N-(5-(6-methyl-4-oxospiro[chroman-2,3′-oxetan]-7-yl)pyridin-2-yl)benzamide]
< 25 | Cc1cc2c(cc1-c1ccc(NC(=O)c3c(F)cccc3F)cc1)OC1(CCC1)CC2 [Example 22, 2,6-Difluoro-N-(4-(6-methylspiro[chroman-2,1′-cyclobutan]-7-yl)phenyl)benzamide]
< 25 | Cc1cc2c(cc1-c1ccc(NC(=O)c3c(F)cccc3Cl)cc1)OC1(CCC1)CC2 [Example 8, 2-Chloro-6-fluoro-N-(4-(6-methylspiro[chroman-2,1′-cyclobutan]-7-yl)phenyl)benzamide]
25 to 50 | CC1(C)C=C(c2ccc(NC(=O)c3c(F)cccc3F)nc2)c2ccccc2O1 [Example 108, N-(5-(2,2-Dimethyl-2H-chromen-4-yl)pyridin-2-yl)-2,6-difluorobenzamide]
25 to 50 | O=C(Nc1ccc(C2=CC3(CCC3)Oc3ccccc32)cn1)c1c(F)cccc1F [Example 72, 2,6-Difluoro-N-(5-(spiro[chromene-2,1′-cyclobutan]-4-yl)pyridin-2-yl)benzamide]
50 to 100 | Cc1cc2c(cc1-c1ccc(NC(=O)c3c(F)cccc3F)cc1)OC1(CNC1)CC2=O [Example 120, 2,6-Difluoro-N-(4-(6′-methyl-4′-oxospiro[azetidine-3,2′-chroman]-7′-yl)phenyl)benzamide hydrochloride]
25 to 50 | Cc1cccc2c1OC1(C=C2c2ccc(C(=O)Nc3c(F)cncc3F)cc2)CCC1 [Example 111, N-(3,5-Difluoropyridin-4-yl)-4-(8-methylspiro[chromene-2,1′-cyclobutan]-4-yl)benzamide]
25 to 50 | Cc1cccc2c1OC1(C=C2c2ccc(NC(=O)c3c(F)cccc3F)cn2)CCC1 [Example 102, 2,6-Difluoro-N(6-(8-methylspiro[chromene-2,1′-cyclobutan]-4-yl)pyridin-3-yl)benzamide]
50 to 100 | CC1(C)C=C(c2cnc(NC(=O)c3c(F)cccc3F)cn2)c2ccccc2O1 [Example 81, N-(5-(2,2-Dimethyl-2H-chromen-4-yl)pyrazin-2-yl)-2,6-difluorobenzamide]
< 25 | CCc1cc2c(cc1-c1cnc(NC(=O)c3c(F)cccc3F)cn1)OC(C)(C)CC2=O [Example 5, N-(5-(6-Ethyl-2,2-dimethyl-4-oxochroman-7-yl)pyrazin-2-yl)-2,6-difluorobenzamide]
25 to 50 | Cc1cc2c(cc1-c1ccc(NC(=O)c3c(F)cccc3Cl)cc1)OC1(CCC1)CC2=O [Example 11, 2-Chloro-6-fluoro-N-(4-(6-methyl-4-oxospiro[chroman-2,1′-cyclobutan]-7-yl)phenyl)benzamide]
< 25 | Cc1cccc2c1OC1(C=C2c2cnc(NC(=O)c3c(F)cccc3F)cn2)CCC1 [Example 100, 2,6-Difluoro-N-(5-(8-methylspiro[chromene-2,1′-cyclobutan]-4-yl)pyrazin-2-yl)benzamide]
100 to 500 | Cc1cc2c(cc1-c1ccc(C(=O)Nc3c(F)cncc3F)cc1)OC(C)(C)CC2=O [Example 43, N-(3,5-Difluoropyridin-4-yl)-4-(2,2,6-trimethyl-4-oxochroman-7-yl)benzamide]
25 to 50 | CC1(C)C=C(c2ccc(NC(=O)c3c(F)cccc3F)cc2)c2ccccc2O1 [Example 79, N-(4-(2,2-Dimethyl-2H-chromen-4-yl)phenyl)-2,6-difluorobenzamide]
25 to 50 | Cc1cc2c(cc1-c1ccc(NC(=O)c3c(C)cccc3F)cc1)OC1(CCC1)CC2 [Example 9, 2-Fluoro-6-methyl-N-(4-(6-methylspiro[chroman-2,1′-cyclobutan]-7-yl)phenyl)benzamide]
25 to 50 | Cc1cc2c(cc1-c1ccc(NC(=O)c3c(C)cccc3F)cc1)OC1(CCC1)CC2=O [Example 10, 2-Fluoro-6-methyl-N-(4-(6-methyl-4-oxospiro[chroman-2,1′-cyclobutan]-7-yl)phenyl)benzamide]
100 to 500 | Cc1ccc2c(c1)OC1(C=C2c2ccc(NC(=O)c3c(F)cccc3F)nc2)CCC1 [Example 109, 2,6-Difluoro-N-(5-(7-methylspiro[chromene-2,1′-cyclobutan]-4-yl)pyridin-2-yl)benzamide]
25 to 50 | Cc1cc2c(cc1-c1ccc(NC(=O)c3c(F)cccc3F)cn1)OC(C)(C)CC2=O [Example 27, 2,6-Difluoro-N-(6-(2,2,6-trimethyl-4-oxochroman-7-yl)pyridin-3-yl)benzamide]
